From patent publication US12564568B2, “PKC pathway in Parkinson's Disease” (CEDARS-SINAI MEDICAL CENTER, priority 2018, dated 2026)

Experiments:
LC3 = LC3 level in day 30 DaNs after PEP treatment (western blot); format: cell-based, human; conditions: PD cells
cleaved caspase 3 (CC3) = assay: Cleaved caspase 3 in mDA cultures over PEP005 time-course (western blot); format: cell-based, human; conditions: PD/EOSPD cultures, PEP005 treatment
Procedure: Western blot: Cells were gently scraped off the plates, washed with PBS, centrifuged at 15000 RPM for 1 min, and dry pellets were frozen at −80° C. Samples were then thawed and lysed using 1×NETN buffer (20 mM Tris-HCl (pH 8.0), 100 mM NaCl, 0.5 mM EDTA and 0.5% NP-40) supplemented with phosphatase/protease inhibitor cocktail (MS-SAFE, Sigma-Aldrich). Lysates were sonicated in an automated cold bath sonicator for 20 mins using alternating 10 sec pulses followed by 10 sec rests. Samples were centrifuged for 20 min at 4° C. at 15000 RPM. Total soluble protein concentrations were measured using a Bradford assay (BIO-RAD). 4× Laemmli sample buffer (BIO-RAD 161-0774) was added to either 100 μg or 50 μg of total protein extracts and samples were boiled for 5 min. […] Membranes were blocked with Odyssey blocking buffer (LI-COR) and then incubated with primary antibodies for overnight at 4° C. or room temperature for 3 hours. Following incubation with dye-labeled secondary antibodies for 2 hours at room temperature, signals were visualized using an Odyssey Fc imaging system (LI-COR). […] Combined α-synuclein and p-PKCα expression plots were calculated by first normalizing bands to β-actin, then to the 02iCTR signal present in each blot. […] ROC plot and area under the curve was determined using R package ROCR to determine predicative probability percentages.

synuclein = assay: Injection into the ventricles of WT mice, synuclein in striatum; format: in vivo, mouse; conditions: 0.3, 3, and 30 uM injected into ventricles of WT mice; 1 and 5 days post injection
Procedure: In vivo, PEP stimulates synuclein degradation. Dosage studies of 0.3, 3, and 30 uM PEP was injected into the ventricles of WT mice.

[1] = Dose ranging study in rat; format: in vivo; conditions: rats, for 7 days
Procedure: For dose ranging studies in rat and mini-pig. Repeated doses up to 15 ug/kg/day for 7 days were tolerated in rats, 5 ug/kg in pigs

[2] = PK profile in mice after IV tail vein injection; format: in vivo, mouse; conditions: 10 and 50 ug/kg IV tail vein
Procedure: In a study to determine PK profile of PEP in mice—10 and 50 ug/kg were administered by IV tail vein injection. […] Again potentially problematic for IV delivery.

C/C=C(/C)C(=O)O[C@H]1C(C)=C[C@]23C(=O)[C@@H](C=C(CO)[C@@H](O)[C@]12O)[C@H]1[C@@H](C[C@H]3C)C1(C)C [PEP005, ingenol-3-angelate]
LC3 response (LC3): neither LAMP1 nor LC3 respond
cleaved (active) caspase 3 (CC3) (cleaved caspase 3 (CC3)): marked decrease
cleaved (active) caspase 3 (CC3) (cleaved caspase 3 (CC3); listed as PEP): marked decrease
synuclein in mouse striatum (synuclein): Reduction
tolerated repeated dose [1]: up to 15 ug/kg/day
serum concentration ([2]; 1 hour after): below detectable limits
clearance ([2]; >blood flow through the liver): very high clearance
